System: P388 mouse leukemia cell line
Assay: Cytocidal effect on P388 mouse leukemia cells (crystal violet cytometry)
Assay type: cell-based
Settings: 72 h; P388 mouse leukemia cells, 1×10^3 cells/well, 3 days incubation with compound; read-out: ED50 (concentration causing a 50% decrease in cell count as compared with the control)
Procedure: A 96-well plate was inoculated with 1×10^3 cells/well of P388 mouse leukemia cell line and incubated for 24 hours. The test compound was dissolved in dimethylformamide and the solution was diluted with medium to various concentrations and added to respective wells. The plate was further incubated for 3 days, after which it was fixed with glutaraldehyde and stained with crystal violet for cytometry. The cytocidal effect of each compound was expressed as the concentration causing a 50% decrease in cell count (ED50) as compared with the control.

Going from `COc1cc(C2c3cc4c(cc3C(CCN(C)CCN(C)C)C3COC(=O)C23)OCO4)cc(OC)c1O` (stereo not drawn) [Compound 35] to `CCN(CC)CCN(C)CCC1c2cc3c(cc2C(c2cc(OC)c(O)c(OC)c2)C2C(=O)OCC12)OCO3` (stereo not drawn) [Compound 47], the IC50 rises from 0.001 µM to 0.0063 µM (6.3-fold).

Same assay, conditions: Mus musculus, P388, 72 h, read-out: ED50 (concentration causing a 50% decrease in cell count as compared with the control)

Going from `COc1cc(C2c3cc4c(cc3C(CC=O)C3COC(=O)C23)OCO4)cc(OC)c1OC(=O)OCc1ccccc1` (stereo not drawn) [Compound 3, 4-desoxy-4'-demethyl-4'-O-benzyloxycarbonyl-4-formylmethyl-4-epipodophyllotoxin] to `COc1cc(C2c3cc4c(cc3C(CC=O)C3COC(=O)C23)OCO4)cc(OC)c1O` (stereo not drawn) [Compound 5, 4-desoxy-4'-demethyl-4-formylmethyl-4-epipodophyllotoxin], the IC50 falls from 0.45 µM to 0.12 µM (3.8-fold).

Compared with `COc1cc(C2c3cc4c(cc3C(CCCN(C)C)C3COC(=O)C23)OCO4)cc(OC)c1O` (stereo not drawn) [Compound 28, 4-desoxy-4'-demethyl-4-(3-N,N-dimethylamino-1-propyl)-4-epipodophyllotoxin], `COc1cc(C2c3cc4c(cc3C(CCNCCN(C)C)C3COC(=O)C23)OCO4)cc(OC)c1O` (stereo not drawn) [Compound 52] is 3.3-fold higher in IC50: 0.012 µM for the first, 0.04 µM for the second.

`COc1cc(C2c3cc4c(cc3C(CCN(C)N(C)C)C3COC(=O)C23)OCO4)cc(OC)c1O` (stereo not drawn) [Compound 33] and `CCCCCCN(C)CCC1c2cc3c(cc2C(c2cc(OC)c(O)c(OC)c2)C2C(=O)OCC12)OCO3` (stereo not drawn) [Compound 38] are within 1.5-fold of each other in IC50: 0.02 µM for the first, 0.019 µM for the second.

`COc1cc(C2c3cc4c(cc3C(CCN3CCN(C)CC3)C3COC(=O)C23)OCO4)cc(OC)c1O` (stereo not drawn) [Compound 34] and `COc1cc(C2c3cc4c(cc3C(CCN(C)N3CCN(C)CC3)C3COC(=O)C23)OCO4)cc(OC)c1O` (stereo not drawn) [Compound 53] are within 1.5-fold of each other in IC50: 0.003 µM for the first, 0.0043 µM for the second.

Going from `COc1cc(C2c3cc4c(cc3C(CCN(C)CCN3CCCCC3)C3COC(=O)C23)OCO4)cc(OC)c1O` (stereo not drawn) [Compound 43] to `COc1cc(C2c3cc4c(cc3C(CCN3CCCCC3)C3COC(=O)C23)OCO4)cc(OC)c1O` (stereo not drawn) [Compound 44], the IC50 rises from 0.0041 µM to 0.012 µM (2.9-fold). The first is the more potent here.

In the case of `COc1cc(C2c3cc4c(cc3C(CCN3CCC(N5CCCCC5)CC3)C3COC(=O)C23)OCO4)cc(OC)c1O` (stereo not drawn) [Compound 45], the IC50 is reported as 0.0033 µM.

System: L1210 mouse leukemia cell line
Assay: Life-prolonging effect in CDF1 mice intraperitoneally transplanted with L1210 leukemia
Assay type: in vivo
Settings: 2.5 mg/kg/day i.p., 5 days; L1210, male CDF1 mice; vs vehicle group
Procedure: L1210 mouse leukemia cell line, 1×10^5 cells/mouse, was intraperitoneally transplanted into 7-weeks-old male CDF1 mice (6 per group). The test compound, in the varying amounts shown below in Table 4, was dissolved in physiological saline containing 3.5% of dimethyl sulfoxide and 6.5% of Tween 80 and the solution was intraperitoneally administered for 5 days following the transplantation of cells for a total of 5 times. The percent life-prolonging effect of the compound was determined by comparison with a group given physiological saline containing 3.5% of dimethyl sulfoxide and 6.5% of Tween 80 only.

Work on `COc1cc(C2c3cc4c(cc3C(CCN3CCC(N5CCCCC5)CC3)C3COC(=O)C23)OCO4)cc(OC)c1O` (stereo not drawn) [Compound 45] yielded a Life-prolonging effect of 231%.

Same assay, conditions: 5 mg/kg/day i.p., 5 days; L1210, male CDF1 mice; vs vehicle group

`COc1cc(C2c3cc4c(cc3C(CCN(C)CCN3CCCCC3)C3COC(=O)C23)OCO4)cc(OC)c1O` (stereo not drawn) [Compound 43] showed a Life-prolonging effect of 257%.

Same assay, conditions: 10 mg/kg/day i.p., 5 days; L1210, male CDF1 mice; vs vehicle group

Compound `COc1cc(C2c3cc4c(cc3C(CCN3CCOCC3)C3COC(=O)C23)OCO4)cc(OC)c1O` (stereo not drawn) [Compound 36] has a Life-prolonging effect of 81%.

System: not given
Assay: not given
Settings: background art statement; cited from earlier work

In the case of `COc1cc([C@@H]2c3cc4c(cc3[C@@H](O[C@@H]3O[C@@H]5CO[C@@H](C)O[C@H]5[C@H](O)[C@H]3O)[C@H]3COC(=O)[C@H]23)OCO4)cc(OC)c1O` [etoposide], the serious adverse reactions is listed as “may cause serious adverse reactions including leukopenia, thrombopenia, alopecia, nausea and vomiting”.
For `COc1cc([C@@H]2c3cc4c(cc3[C@@H](O[C@@H]3O[C@@H]5CO[C@@H](c6cccs6)O[C@H]5[C@H](O)[C@H]3O)[C@H]3COC(=O)[C@H]23)OCO4)cc(OC)c1O` [teniposide], the serious adverse reactions is given as “may cause serious adverse reactions including leukopenia, thrombopenia, alopecia, nausea and vomiting”.

Reference: US5536847A, “4-desoxy-4-epipodophyllotoxin derivative or pharmaceutically acceptable salt thereof” (Taiho Pharmaceutical Co. Ltd., priority 1991, dated 1996)
